Reference: patent publication US6348461B1, “6,7-asymmetrically disubstituted quinoxalinecarboxylic acid derivatives, addition salts thereof, and processes for the preparation of both” (Kyorin Pharmaceutical Co., Ltd., priority 1997, dated 2002)
Where a name gives a salt, the structure may show the parent alone.

| Compound | melting point |
| --- | --- |
| O=C(O)c1nc2cc(Oc3cccc([N+](=O)[O-])c3)c([N+](=O)[O-])cc2[nH]c1=O | 198 to 200 °C (dec.) |
| O=C(O)c1nc2cc(N3CCN(c4ccc(F)cc4)CC3)c([N+](=O)[O-])cc2[nH]c1=O [Example 54, 3,4-Dihydro-7-(4-(4-fluorophenyl)piperazine-1-yl)-6-nitro-3-oxoquinoxaline-2-carboxylic Acid] | 235.5 to 237.5 °C |
| COc1ccccc1N1CCN(c2cc3nc(C(=O)O)c(=O)[nH]c3cc2[N+](=O)[O-])CC1 [Example 59, 3,4-Dihydro-7-(4-(2-methoxyphenyl)piperazine-1-yl)-6-nitro-3-oxoquinoxaline-2-carboxylic Acid] | 204 to 206 °C |
| O=C(O)c1nc2cc(N3CCN(Cc4ccccc4)CC3)c([N+](=O)[O-])cc2[nH]c1=O [Example 60, 7-(4-Benzylpiperazine-1-yl)-3,4-dihydro-6-nitro-3-oxoquinoxaline-2-carboxylic Acid] | 278 to 280 °C |
| O=C(O)c1nc2cc(N3CCC(O)CC3)c([N+](=O)[O-])cc2[nH]c1=O [Example 61, 3,4-Dihydro-7-(4-hydroxypiperidine-1-yl)-6-nitro-3-oxoqinoxaline-2-carboxylic Acid] | 253 to 255 °C |
| CN(C)Cc1cc2nc(C(=O)O)c(=O)[nH]c2cc1[N+](=O)[O-] [Example 67, 3,4-Dihydro-7-dimethylaminomethyl-6-nitro-3-oxoquinoxaline-2-carboxylic Acid] | > 300 °C |
| NC(=O)c1nc2cc(F)c([N+](=O)[O-])cc2[nH]c1=O [Example 69, 3,4-Dihydro-7-fluoro-6-nitro-3-oxoquinoxaline-2-carboxamide] | > 300 °C |
| NC(=O)c1nc2cc(-n3ccc(=O)cc3)c([N+](=O)[O-])cc2[nH]c1=O [Example 70, 3,4-Dihydro-6-nitro-3-oxo-7-(4-pyridone-1-yl)quinoxaline-2-carboxamide] | > 300 °C |
| Nc1cc2[nH]c(=O)c(C(=O)O)nc2cc1F [Example 72, 6-Amino-3,4-dihydro-7-fluoro-3-oxoquinoxaline-2-carboxylic Acid] | > 300 °C |
| O=C(NCc1ccn(-c2cc3nc(C(=O)O)c(=O)[nH]c3cc2C(F)(F)F)c1)Nc1ccc(C(=O)O)cc1 [Example 79, 7-(3-(((4-Carboxyphenyl)aminocarbonylamino)-methyl)pyrrole-1-yl)-3,4-dihydro-3-oxo-6-trifluoromethylquinoxaline-2-carboxylic Acid] | 234 to 236 °C (dec.) |
| O=C(NCc1ccn(-c2cc3nc(C(=O)O)c(=O)[nH]c3cc2C(F)(F)F)c1)Nc1ccc(C(=O)O)cc1F [Example 80, 7-(3-(((4-Carboxy-2-fluorophenyl)aminocarbonylamino)-methyl)pyrrole-1-yl)-3,4-dihydro-3-oxo-6-trifluoromethylquinoxaline-2-carboxylic Acid] | 249 to 251 °C (dec.) |
| O=C(Nc1ccc(Br)cc1)OCc1cn(-c2cc3nc(C(=O)O)c(=O)[nH]c3cc2[N+](=O)[O-])cn1 [Example 86, 7-(4-((N-(4-Bromophenyl)carbamoyloxy)methyl)imidazolyl)-3,4-dihydro-6-nitro-3-oxoquinoxaline-2-carboxylic Acid] | 270 to 272 °C (dec.) |
| COc1ccc(NC(=O)OCc2cn(-c3cc4nc(C(=O)[O-])c(=O)[nH]c4cc3[N+](=O)[O-])cn2)cc1.[Na+] [Example 108] | 265 to 267 °C (dec.) |
| O=C(Nc1cccc(C(=O)O)c1)OCc1cn(-c2cc3nc(C(=O)O)c(=O)[nH]c3cc2[N+](=O)[O-])cn1 [Example 116, 7-(4-((N-(3-Carboxyphenyl)carbamoyloxy)methyl)imidazolyl)-3,4-dihydro-6-nitro-3-oxoquinoxaline-2-carboxylic Acid] | 272 to 274 °C (dec.) |
| O=C(NCc1cn(-c2cc3nc(C(=O)O)c(=O)[nH]c3cc2[N+](=O)[O-])cn1)Nc1ccccc1F [Example 118, 3,4-Dihydro-7-(4-(((2-fluorophenyl)aminocarbonylamino)methyl)imidazolyl)-6-nitro-3-oxoquinoxaline-2-carboxylic Acid] | 300 °C |

Results, then the compound that gave them:

| melting point | Compound |
| --- | --- |
| 209 to 211 °C (dec.) | O=C(O)c1nc2cc(CN3CCOCC3)c([N+](=O)[O-])cc2[nH]c1=O (as salt: hydrochloride) [Example 160, 3,4-Dihydro-7-(morpholine-1-yl)methyl-6-nitro-3-oxoquinoxaline-2-carboxylic Acid Hydrochloride] |
| 300 °C (dec.) | O=C(NCc1cn(-c2cc3nc(C(=O)O)c(=O)[nH]c3cc2[N+](=O)[O-])cn1)Nc1ccc(C(=O)O)cc1 (as salt: salt) [Example 119, 7-(4-(((4-Carboxyphenyl)aminocarbonylamino)methyl)imidazolyl)-3,4-dihydro-6-nitro-3-oxoquinoxaline-2-carboxylic Acid] |
| 255 °C (dec.) | O=C(NCc1cn(-c2cc3nc(C(=O)O)c(=O)[nH]c3cc2C(F)(F)F)cn1)Nc1ccc(C(=O)O)cc1 (as salt: salt) [Example 207, 7-(4-(((4-Carboxyphenyl)aminocarbonylamino)methyl)imidazole-1-yl)-3,4-dihydro-3-oxo-6-trifluoromethylquinoxaline-2-carboxylic Acid] |
| 250 to 252 °C (dec.) | O=C(Nc1cccc(C(=O)O)c1)OCc1cn(-c2cc3nc(C(=O)O)c(=O)[nH]c3cc2[N+](=O)[O-])ccc1=O [Example 125, 7-(3-((N-(3-Carboxyphenyl)carbamoyloxy)methyl)-4-pyridone-1-yl)-3,4-dihydro-6-nitro-3-oxoquinoxaline-2-carboxylic Acid] |
| 252 to 254 °C (dec.) | O=C(Nc1ccc(Br)cc1)Nc1cn(-c2cc3nc(C(=O)O)c(=O)[nH]c3cc2[N+](=O)[O-])ccc1=O [Example 128, 7-(3-((4-Bromophenyl)aminocarbonylamino)-4-pyridone-1-yl)-3,4-dihydro-6-nitro-3-oxoquinoxaline-2-carboxylic Acid] |
| 282 to 284 °C (dec.) | O=C(Nc1ccccc1)Nc1cn(-c2cc3nc(C(=O)O)c(=O)[nH]c3cc2[N+](=O)[O-])ccc1=O [Example 129, 3,4-Dihydro-6-nitro-3-oxo-7-(3-(phenylaminocarbonylamino)-4-pyridone-1-yl)quinoxaline-2-carboxylic Acid] |
| 240 to 242 °C (dec.) | O=C(Cc1ccc(Br)cc1)Nc1cn(-c2cc3nc(C(=O)O)c(=O)[nH]c3cc2[N+](=O)[O-])ccc1=O [Example 136, 7-(3-((4-Bromobenzyl)carbonylamino)-4-pyridone-1-yl)-3,4-dihydro-6-nitro-3-oxoquinoxaline-2-carboxylic Acid] |
| 298 to 299 °C | O=C(c1nc2cc(N3CCOCC3)c([N+](=O)[O-])cc2[nH]c1=O)N1CCOCC1 [Example 138, 3,4-Dihydro-7-morpholino-6-nitro-3-oxoquinoxaline-2-carboxylic Morpholineamide] |
| > 300 °C | Nc1cn(-c2cc3nc(C(=O)O)c(=O)[nH]c3cc2[N+](=O)[O-])ccc1=O [Example 142, 7-(3-Amino-4-pyridone-1-yl)-3,4-dihydro-6-nitro-3-oxoquinoxaline-2-carboxylic Acid] |
| 300 °C | Nc1cc2nc(C(=O)O)c(=O)[nH]c2cc1[N+](=O)[O-] [Example 157, 7-Amino-3,4-dihydro-6-nitro-3-oxoquinoxaline-2-carboxylic Acid] |
| 173 to 175 °C | Cn1c(=O)c(C(=O)O)nc2cc(F)c([N+](=O)[O-])cc21 [Example 162, 3,4-Dihydro-7-fluoro-4-methyl-6-nitro-3-oxoquinoxaline-2-carboxylic Acid] |
| 213 to 215 °C (dec.) | O=C(O)c1nc2cc(C(F)(F)F)c([N+](=O)[O-])cc2[nH]c1=O [Example 163, 3,4-Dihydro-6-nitro-3-oxo-7-trifluoromethylquinoxaline-2-carboxylic Acid] |
| 218 to 220 °C (dec.) | Nc1cc2nc(C(=O)O)c(=O)[nH]c2cc1C(F)(F)F [Example 164, 7-Amino-3,4-dihydro-3-oxo-6-trifluoromethylquinoxaline-2-carboxylic Acid] |
| 232 to 234 °C (dec.) | O=C(O)c1nc2cc(-n3ccnc3)c(C(F)(F)F)cc2[nH]c1=O [Example 168, 3,4-Dihydro-7-imidazolyl-3-oxo-6-trifluoromethylquinoxaline-2-carboxylic Acid] |
| 300 °C | O=C(O)c1nc2cc(-n3ccc(=O)cc3)c(C(F)(F)F)cc2[nH]c1=O [Example 169, 3,4-Dihydro-3-oxo-7-(4-pyridone-1-yl)-6-trifluoro-methylquinoxaline-2-carboxylic Acid] |
| 196 to 198 °C (dec.) | O=C(NCc1ccn(-c2cc3nc(C(=O)O)c(=O)[nH]c3cc2C(F)(F)F)c1)Nc1ccc(Br)cc1 [Example 185, 7-(3-(((4-Bromophenyl)aminocarbonylamino)methyl)pyrrole-1-yl)-3,4-dihydro-3-oxo-6-trifluoromethylquinoxaline-2-carboxylic Acid] |
| 300 °C | O=C(NCc1ccn(-c2cc3nc(C(=O)O)c(=O)[nH]c3cc2C(F)(F)F)c1)Nc1cccc(C(=O)O)c1 [Example 187, 7-(3-(((3-Carboxyphenyl)aminocarbonylamino)methyl)pyrrole-1-yl)-3,4-dihydro-3-oxo-6-trifluoromethylquinoxaline-2-carboxylic Acid] |
| > 300 °C | O=C(NCc1ccn(-c2cc3nc(C(=O)O)c(=O)[nH]c3cc2C(F)(F)F)c1)Nc1ccccc1 [Example 188, 3,4-Dihydro-3-oxo-7-(3-((phenylaminocarbonylamino)methyl)pyrrole-1-yl)-6-trifluoromethylquinoxaline-2-carboxylic Acid] |
| 193 to 195 °C (dec.) | O=C(Nc1ccccc1)OCc1cn(-c2cc3nc(C(=O)O)c(=O)[nH]c3cc2C(F)(F)F)cn1 [Example 235, 3,4-Dihydro-3-oxo-7-((4-(N-phenylcarbamoyloxy)methyl)imidazole-1-yl)-6-trifluoromethylquinoxaline-2-carboxylic Acid] |
| 207 to 209 °C (dec.) | CCOC(=O)c1ccc(NC(=O)OCc2cn(-c3cc4nc(C(=O)O)c(=O)[nH]c4cc3[N+](=O)[O-])cn2)cc1 [Example 278, 3,4-Dihydro-7-(4-((N-(4-ethoxycarbonylphenyl)carbamoyloxy)methyl)imidazolyl)-6-nitro-3-oxoquinoxaline-2-carboxylic Acid] |
